Source: patent publication US12338203B2 (TAISHO PHARMACEUTICAL CO., LTD., priority 2019, dated 2025)

Target: T1, human LPAR1 (Homo sapiens, UniProt Q92633)
T1 construct: expressed in transfected cells
Assay: Test Example 1: antagonism against response of LPA-induced increase in intracellular Ca2+ concentration in RH7777 cells stably expressing human LPAR1
Format: cell-based
Conditions: RH7777 cells stably expressing human LPAR1; Fluo-4 fluorescence, FDSS6000; read-out: IC50 value (concentration producing 50% antagonism against response of LPA-induced increase in intracellular Ca2+ concentration) (converted)
In short: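 RH7777 cells stably transfected with human LPAR1 were preincubated with test compound 30 min at 37 °C in HBSS/20 mM HEPES/probenecid/0.05% BSA buffer, pH 7.4, then LPA-stimulated.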

T1 sequence (Q92633 whole entry): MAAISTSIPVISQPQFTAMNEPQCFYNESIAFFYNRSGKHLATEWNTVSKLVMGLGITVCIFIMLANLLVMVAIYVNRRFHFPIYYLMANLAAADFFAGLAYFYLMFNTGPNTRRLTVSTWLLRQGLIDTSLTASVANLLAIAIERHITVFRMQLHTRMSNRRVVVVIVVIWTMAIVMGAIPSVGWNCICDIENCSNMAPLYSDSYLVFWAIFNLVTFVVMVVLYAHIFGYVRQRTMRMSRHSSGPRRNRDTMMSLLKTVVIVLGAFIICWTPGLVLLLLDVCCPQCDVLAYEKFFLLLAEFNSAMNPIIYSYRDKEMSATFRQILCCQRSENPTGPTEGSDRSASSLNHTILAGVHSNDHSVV

IC50 [nM]	Molecule
1.78	CCNc1cc([C@@H](C)N(CCCCc2ccccc2)C(=O)NC2(C(=O)O)CCC2)cc(OCC)c1C(C)=O [Example 5-110]
5.3	CCOc1cc([C@@H](C)N(CCCC(F)(F)c2ccccc2)C(=O)N[C@]2(C(=O)O)C[C@@H](OC)C2)cc(OCC)c1C(C)=O [Example 4-65]
1.88	CCOc1cc(C(C)N(CCCCc2ccccc2)C(=O)NC2(c3nn[nH]n3)CCC2)cc(OCC)c1C(C)=O (stereo not shown) [Example 10-6]
1.33	CCOc1cc([C@@H](C)N(CCCC(F)(F)c2ccccc2)C(=O)NC2(C(=O)O)CC(F)(F)C2)cc(OCC)c1C(C)=O [Example 4-56]
33	CCOc1cc(C(C)N(CCCCc2ccccc2)C(=O)NC2(C(=O)O)CC(F)(F)C2)cc(OCC)c1C(C)=O (stereo not shown) [Example 1-56]
60.8	CCOc1cc([C@@H](C)N(CCCCc2ccc(OC)cc2)C(=O)NC2(C(=O)O)CC(F)(F)C2)cc(OCC)c1C [Example 4-19]
1.44	CCOc1cc(C(C)N(CCCCc2ccccc2)C(=O)NC2(C(=O)O)CC(OCC)C2)cc(OCC)c1C1CC1 (stereo not shown) [Example 1-101]
3.22	CCOc1c(C(C)=O)ccc([C@@H](C)N(CCO[C@H](C)c2ccccc2)C(=O)NC2(C(=O)O)CCC2)c1C [Example 4-148]
25.5	CCCCC(NC(=O)N(CCCCc1ccccc1)[C@H](C)c1cc(OCC)c(C)c(OCC)c1)C(=O)O (stereo partly shown) [Example 1-4]
1.46	CCOc1cc([C@@H](C)N(CCO[C@@H](C)c2ccccc2)C(=O)N[C@]2(C(=O)O)C[C@@H](OCC)C2)c(Cl)c(OCC)c1C(C)=O [Example 5-26, Trans-1-[([(1R)-1-(4-Acetyl-2-Chloro-3,5-Diethoxyphenyl)Ethyl]{2-[(1S)-1-Phenylethoxy]Ethyl}Carbamoyl)Amino]-3-Ethoxycyclobutane-1-Carboxylic Acid]
3.68	CCOc1cc(C(C)N(CCCCc2ccccc2)C(=O)NC2(C(=O)O)CC(F)(F)C2)cc(OCC)c1CO (stereo not shown) [Example 1-50, 1-{[{1-[3,5-Diethoxy-4-(Hydroxymethyl)Phenyl]Ethyl}(4-Phenylbutyl) Carbamoyl]Amino}-3,3-Difluorocyclobutane-1-Carboxylic Acid]
1.98	CCOc1cc([C@@H](C)N(CCOCc2ccccc2)C(=O)NC2(C(=O)O)CC(F)(F)C2)cc(OCC)c1C(C)O (stereo partly shown) [Example 4-103]
3.21	COc1cc(C(C)N(CCOC(C)c2ccccc2)C(=O)NC2(C(=O)O)CCC2)c(Cl)c(OC)c1C1CC1 (stereo not shown) [Example 5-138]
4.31	CCOc1cc([C@@H](C)N(CCOCc2ccccc2)C(=O)NC2(C(=O)O)CCOCC2)cc(OCC)c1C(C)=O [Example 4-110]
3530	CCOc1cc(C(C)N(CCO[C@@H](C)c2ccccc2)C(=O)NC2(C(=O)OC(C)(C)C)CC(OCC)C2)cc(OCC)c1C(C)=O (stereo partly shown) [Example 6-14]
3	C=Cc1c(OCC)cc(C(C)N(CCCCc2ccccc2)C(=O)NC2(C(=O)O)CC(F)(F)C2)cc1OCC (stereo not shown) [Example 1-53]
1.05	CCOc1cc([C@@H](C)N(CCOCc2ccccc2)C(=O)NC2(C(=O)O)CC(OC)C2)c(C)c(OCC)c1C (stereo partly shown) [Example 5-78]
1.08	CCOc1cc([C@@H](C)N(CCO[C@@H](C)c2ccccc2)C(=O)N[C@]2(C(=O)O)C[C@@H](OC)C2)cc(OCC)c1C1CC1 [Example 4-128]
24.3	CCOc1cc(C(C)N(CCCCc2ccccc2)C(=O)NC2(CC(=O)O)CCCC2)cc(OCC)c1C (stereo not shown) [Example 1-146]
11.6	CCOc1cc(C(C)N(CCCCc2ccc(F)cc2)C(=O)NC2(C(=O)O)CC(F)(F)C2)cc(OCC)c1C (stereo not shown) [Example 4-9]
1.55	CCOc1cc([C@@H](C)N(CCO[C@H](C)c2ccccc2)C(=O)NC2(C(=O)O)CC(F)(F)C2)cc(OCC)c1C1CC1 [Example 4-150]

Molecule	IC50 [nM]
Trans-1-[([(1R)-1-(4-Acetyl-2,6-Dichloro-3,5-Diethoxyphenyl)Ethyl]{2-[(1S)-1-Phenylethoxy]Ethyl}Carbamoyl)Amino]-3-Ethoxycyclobutane-1-Carboxylic Acid [Example 5-120]	11.1
